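A five-concentration, 48-hour dose response in 96-well plates underlies each endpoint, interpolated linearly between surrounding concentrations. Here, GI50 denotes the concentration required for 50% inhibition of growth.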 The source made the active and inactive calls. Rule as the data show it: active = GI50 up to about 1.1 µM and inactive = higher.
Key:
Test in all cases: NCI-60 cell line screen, 48 h
MDA-MB-231 = tested on: MDA-MB-231
COLO 205 = tested on: COLO 205
UACC-62 = tested on: UACC-62
SW-620 = tested on: SW-620
SK-OV-3 = tested on: SK-OV-3
RPMI-8226 = tested on: RPMI-8226
SNB-75 = tested on: SNB-75
TK-10 = tested on: TK-10
SK-MEL-28 = tested on: SK-MEL-28
HOP-92 = tested on: HOP-92
K562 = tested on: K562
M14 = tested on: M14
SF-295 = tested on: SF-295
786-0 = tested on: 786-0
MCF7 = tested on: MCF7
OVCAR-8 = tested on: OVCAR-8
IGROV-1 = tested on: IGROV-1
EKVX = tested on: EKVX
RXF 393 = tested on: RXF 393
SF-539 = tested on: SF-539

Measured: GI50

CCOC(=O)CSc1[nH]c2nc(C)nc(Cl)c2c1C#N
inactive: MDA-MB-231 > 10 µM | COLO 205 > 10 µM | UACC-62 > 10 µM | SW-620 > 10 µM | SK-OV-3 > 10 µM | RPMI-8226 > 10 µM | SNB-75 > 10 µM | TK-10 > 10 µM | SK-MEL-28 > 10 µM | HOP-92 > 10 µM | K562 > 10 µM | M14 > 10 µM | SF-295 > 10 µM | 786-0 > 10 µM | MCF7 > 10 µM | OVCAR-8 > 10 µM | IGROV-1 > 10 µM | EKVX > 10 µM | RXF 393 > 10 µM

CN(C)C1(N(C)C)Oc2c(c(=O)n(C)c(=O)n2C)C(c2ccc(C(F)(F)F)cc2)C1(F)F (stereo not drawn)
inactive: MDA-MB-231 > 100 µM | COLO 205 > 100 µM | UACC-62 > 100 µM | SW-620 > 100 µM | SK-OV-3 > 100 µM | RPMI-8226 > 100 µM | SNB-75 > 100 µM | TK-10 > 100 µM | SK-MEL-28 > 100 µM | HOP-92 > 100 µM | K562 > 100 µM | M14 > 100 µM | SF-295 > 100 µM | 786-0 > 100 µM | MCF7 > 100 µM | EKVX > 100 µM | RXF 393 > 100 µM

CC1CC[C@@]2(OC1)O[C@H]1[C@H](O)[C@H]3[C@@H]4CC[C@H]5C[C@@H](OC6OC(CO)C(OC7OC(CO)C(O)C(OC8OCC(O)C(O)C8O)C7OC7OC(CO)C(O)C(O)C7OC7OC(CO)C(O)C(O)C7O)C(O)C6O)[C@H](O)C[C@]5(C)[C@H]4CC[C@]3(C)[C@H]1[C@@H]2C (stereo partly drawn)
inactive: MDA-MB-231 2.61 µM | COLO 205 > 10 µM | UACC-62 > 10 µM | SW-620 > 10 µM | RPMI-8226 2.15 µM | SNB-75 3.1 µM | TK-10 > 10 µM | SK-MEL-28 > 10 µM | HOP-92 > 10 µM | K562 1.77 µM | M14 > 10 µM | 786-0 3.12 µM | MCF7 2.82 µM | OVCAR-8 > 10 µM | IGROV-1 3.7 µM | SF-539 9.46 µM | EKVX > 10 µM | RXF 393 > 10 µM

O=C1/C(=C/c2ccccc2S)N=C(c2ccccc2)N1c1nc2ccc(Sc3ccccc3)cc2[nH]1
inactive: MDA-MB-231 26.1 µM | COLO 205 20.4 µM | UACC-62 21.9 µM | SW-620 29.9 µM | SK-OV-3 43.1 µM | RPMI-8226 23.9 µM | SNB-75 22.3 µM | TK-10 27 µM | SK-MEL-28 36.5 µM | HOP-92 81.3 µM | K562 24.1 µM | M14 20.4 µM | SF-295 27.4 µM | 786-0 28.1 µM | MCF7 27 µM | OVCAR-8 34.5 µM | IGROV-1 49.4 µM | EKVX 46.6 µM | RXF 393 28.2 µM

Oc1ccccc1CNCc1nc2ccccc2[nH]1
inactive: MDA-MB-231 71.9 µM | COLO 205 29.7 µM | UACC-62 78.7 µM | SW-620 55.3 µM | RPMI-8226 17.7 µM | SNB-75 57.4 µM | TK-10 83 µM | SK-MEL-28 > 100 µM | HOP-92 73.5 µM | K562 51.2 µM | M14 86.3 µM | SF-295 45.8 µM | 786-0 26.1 µM | MCF7 > 100 µM | OVCAR-8 29 µM | IGROV-1 > 100 µM | SF-539 > 100 µM | EKVX 36.1 µM | RXF 393 75 µM

CSc1nc(-c2ccccc2)[nH]c(=O)n1
inactive: MDA-MB-231 > 100 µM | COLO 205 > 100 µM | UACC-62 > 100 µM | SW-620 > 100 µM | SK-OV-3 > 100 µM | RPMI-8226 > 100 µM | TK-10 > 100 µM | SK-MEL-28 > 100 µM | HOP-92 > 100 µM | M14 > 100 µM | SF-295 > 100 µM | 786-0 > 100 µM | MCF7 > 100 µM | OVCAR-8 > 100 µM | IGROV-1 > 100 µM | SF-539 > 100 µM | EKVX > 100 µM | RXF 393 > 100 µM

COc1cc(/C=C2/SC(c3ccccc3)N(c3cc(Cl)ccc3Cl)C2=O)cc(OC)c1OC (stereo not drawn)
inactive: MDA-MB-231 > 100 µM | COLO 205 > 100 µM | UACC-62 44.2 µM | SW-620 49.9 µM | SK-OV-3 > 100 µM | RPMI-8226 23.8 µM | SNB-75 45.1 µM | TK-10 > 100 µM | SK-MEL-28 87.7 µM | HOP-92 > 100 µM | K562 59 µM | M14 50.9 µM | SF-295 47.1 µM | 786-0 > 100 µM | MCF7 30.8 µM | OVCAR-8 > 100 µM | IGROV-1 44.9 µM | EKVX 84.9 µM | RXF 393 45.8 µM

O=C1NC(N2CCCC(CO)C2)=N/C1=C\c1ccccc1 (stereo not drawn)
inactive: MDA-MB-231 > 100 µM | COLO 205 > 100 µM | UACC-62 > 100 µM | SW-620 > 100 µM | SK-OV-3 > 100 µM | RPMI-8226 > 100 µM | SNB-75 > 100 µM | TK-10 > 100 µM | SK-MEL-28 > 100 µM | HOP-92 > 100 µM | M14 > 100 µM | SF-295 > 100 µM | 786-0 > 100 µM | MCF7 > 100 µM | OVCAR-8 > 100 µM | IGROV-1 > 100 µM | SF-539 > 100 µM | EKVX > 100 µM | RXF 393 > 100 µM

Cc1cc(C)c(C#N)c(SC(=S)NC(=O)c2ccccc2)n1
inactive: MDA-MB-231 > 100 µM | COLO 205 > 100 µM | UACC-62 > 100 µM | SW-620 > 100 µM | RPMI-8226 > 100 µM | SNB-75 1.53 µM | TK-10 > 100 µM | SK-MEL-28 > 100 µM | HOP-92 > 100 µM | K562 > 100 µM | M14 > 100 µM | 786-0 > 100 µM | MCF7 > 100 µM | IGROV-1 > 100 µM | SF-539 > 100 µM | EKVX > 100 µM | RXF 393 3.95 µM

COc1ccccc1N1CCN(Cn2c(=O)oc3cccnc32)CC1
inactive: MDA-MB-231 > 100 µM | SW-620 36.4 µM | SK-OV-3 > 100 µM | RPMI-8226 > 100 µM | SNB-75 30 µM | TK-10 > 100 µM | SK-MEL-28 > 100 µM | HOP-92 > 100 µM | K562 > 100 µM | M14 > 100 µM | SF-295 > 100 µM | 786-0 > 100 µM | MCF7 > 100 µM | OVCAR-8 > 100 µM | IGROV-1 > 100 µM | SF-539 > 100 µM | EKVX > 100 µM | RXF 393 > 100 µM
